Assay results taken from patent US20220332839A1, “USE OF PRG4 TO TREAT CANCER” (Lubris LLC, priority 2019, published 2022).

Assays:
Assay type in all cases: cell-based, human
[1] = system: MDA-MB-231 cells; experiment: In vitro trans-well invasion assay
Method: Overnight 0.2% FBS-containing DMEM incubated, i.e. serum-starved, MDA-MB-231 cells were used for the transwell invasion using polycarbonate filters (24-well insert, pore size 8 μm; BD Biosciences, Canada). Prior to addition of cells, each insert was placed within a well of a 24-well tissue culture plate and equilibrated with 0.5 mL serum-free DMEM, added both to the upper and lower chambers at 37° C. for 2 h. The equilibration media was then gently removed and upper chamber surface of the insert was coated with 50 μL of 3% Matrigel and allowed to solidify at 37° C. for 1 h. 1×10^5 serum-starved MDA-MB-231 cells were resuspended in 0.5 mL of serum-free DMEM and added to the upper Matrigel-coated chamber. 500 μL complete growth medium alone or containing specific reagents, as described in the respective figure descriptions, was added to the lower chambers. Cells were allowed to invade the matrix for 12 h at 37° C. after which non-adherent cells were removed by PBS washing of cell layers on the upper chamber three times. During the second wash a cotton tip applicator was used to gently scrape away the adherent cells on the upper surface of the membrane. Invading cells were fixed by immersing the transwell inserts in 100% methanol for 10 minutes at −20° C., followed by staining with 0.5% crystal violet dye (EMD Millipore, Canada) for 1 h at room temperature. Eight randomly chosen fields of each stained membrane were imaged at 10× objective of a DIC microscope (Olympus IX70) coupled to a digital camera. Cell numbers were obtained by counting the number of crystal violet stained cells in each field using a handheld counter. The average cell numbers for all images per treatment conditions were calculated and used for further statistical analysis. Each experiment was performed at least three independent times.

[2] = system: MDA-MB-231 cells; experiment: In vitro scratch assay (migration); conditions: 36 h
Method: 5×10^5 MDA-MB-231 cells were seeded in each well of a 12-well tissue culture plate and grown overnight to near confluency in complete growth medium and then overnight serum starved by incubating with 0.2% FBS-containing DMEM medium in a 5% CO2 humidified incubator at 37° C. incubator. […] Scratch closure in each well was followed by imaging the scratch and surrounding cells in each well at 3× objective of a DIC microscope (Olympus IX70) coupled to a digital camera at time 0 h and 36 h after initiating the scratch. Five images were captured along the vertical axis of the scratch for each experimental condition. The width of each scratch was measured at three different positions per image for a total of 15 measurements using ImageJ (National Institutes of Health, USA), and then averaged per experimental condition. The width average at 36 h was subtracted from the width average at 0 h and expressed relative to that at 0 h width for each experimental condition to obtain scratch closure, and expressed as percent scratch closure.

[3] = system: 3TP-Lux reporter; experiment: 3TP-Lux luciferase reporter assay; conditions: 100 pM TGFβ
Method: MDA-MB-231 cells were seeded in 24-well plates at approximately 6×10^4 cells/well one day prior to transfections. Cells were co-transfected with the PAI1-promoter-driven firefly luciferase Reporter (3TP-Lux) and the CMV-Renilla luciferase control reporter constructs. 18 h post transfection, cells were serum-starved (0.2% FBS containing DMEM) for 4 h and then incubated in fresh low-serum (0.2% FBS containing DMEM) containing media in the absence or presence of 100 pM TGFβ, 100 μg/mL rhPRG4 alone or together and left overnight. Lysates were prepared and analyzed for luciferase activity using a commercially available dual luciferase assay kit (Promega, Canada). Arbitrary luciferase activity (relative light units) values were normalized to Renilla luciferase activity to account for variations in transfection efficiency. For each transfection, percent increase of PAI1 promoter driven luciferase reporter gene expression was also determined and expressed relative to luciferase activity of the respective basal condition lysates. Each experimental condition was carried out in triplicate.

| Substance | invasion of cells, stimulus alone vs untreated control ([1]; 100 pM TGFβ, 400 μg/mL LMWHA) | scratch closure, TGFβ vs control well ([2]; 100 pM TGFβ) | 3TP-Lux reporter activity, TGFβ alone [3] | invasion of cells in the absence or presence of TGFβ ([1]; 100 μg/mL rhPRG4, 100 pM TGFβ, 12 h) | cell invasion in the presence of LMWHA ([1]; 400 μg/mL LMWHA, 5 μg/mL CD44 neutralizing antibody, 100 μg/mL rhPRG4) | scratch closure in the absence or presence of TGFβ ([2]; 100 μg/mL rhPRG4) | TGFβ-induced 3TP-Lux reporter activity ([3]; 100 μg/mL rhPRG4, overnight, 0.2% FBS) |
| --- | --- | --- | --- | --- | --- | --- | --- |
| TGFβ: recombinant human mature transforming growth factor beta (R&D systems) [reference compound] | promote the invasion of MDA-MB-231 cells | increased the scratch closure process | significant induction of 3TP-Lux reporter activity |  |  |  |  |
| rhPRG4: full-length recombinant human PRG4 (lubricin) glycoprotein produced by CHO-M cells; residues 25-1404 of SEQ ID NO:1 |  |  |  | blocked the ability of MDA-MB-231 cells to be invasive | able to inhibit breast cancer cell invasion | significantly delayed the scratch closure process | did not alter TGFβ-induced 3TP-Lux reporter activity |
